A word on the AUC(0-inf): it is total exposure, with the tail of the curve extrapolated. Usually AUC(0-t) stands for exposure summed from dosing to a finite time, without extrapolation to infinity. Higher therefore signals high exposure. For orientation: Cmax means the highest concentration seen after dosing. As a reminder, the Tmax is the time at which the peak concentration occurs. By half-life is commonly meant how long it takes for the measured level to halve. A high value points to slow decline. One may read the MIC90 as the lowest concentration that inhibits either 90% of growth or 90% of the strains tested, depending on the study. A high value points to weaker potency.

Where “and” joins values, the source holds several entries; their conditions need not be identical. Identical values can stand only once.

The record followed here is patent EP4775586A1, “DEUTERATED TETRACYCLIC DERIVATIVE AND USE THEREOF” (priority 2023, dated 2025).

Series [1] deals with Mycobacterium tuberculosis H37Rv. It counts as in vivo, BALB/c mice.
Series [2] can be described thus: 28-day repeat-dose toxicity study in mice. The conditions noted are these: 100 mg/kg intragastric, once daily, 6 days a week, 4 weeks, Balb/c mice. It counts as in vivo, Balb/c mice. The method, then: Administration groups of the compound YF027 of the present disclosure and its non-deuterated control compound A were set for a 28-day repeat-dose toxicity study in mice. Each compound was administered to 10 Balb/c mice (5 females and 5 males, purchased from Beijing Vital River Laboratory Animal Technology Co., Ltd.) by intragastric administration. The administration was performed once daily for 6 consecutive days a week for 4 consecutive weeks, and an 8% Tween 80 vehicle control group (10 Balb/c mice, 5 females and 5 males) was set for administration at the same volume using the same method. Table 12. Administration information of repeat-dose toxicity assay
During the administration period, the mice were observed every day. The body weight, appearance signs, behavior and activity, fecal traits, and local reactions at the site of administration were recorded. After the end of the administration, the gross anatomy was performed on the mice in the administration group and the control group. The serum of the mice was collected, and the heart, liver, spleen, kidney, lung, and brain tissues and organs were weighed to calculate organ coefficients. The tissue samples of all groups were subjected to histopathological detection, and the serum samples were analyzed for biochemical parameters of liver and kidney functions. The serum biochemical parameters included: alanine aminotransferase (ALT), aspartate aminotransferase (AST), alkaline phosphatase (ALP), urea (UREA), creatinine (CREA), total protein (TP), and albumin (ALB). Statistical analysis was performed to evaluate potential toxic effects of the compounds.

Series [3] can be described thus: Pharmacokinetics and lung tissue distribution in mice, LC-MS/MS. The conditions noted are these: mouse, in vivo, po, 100 mg/kg. It counts as in vivo, Balb/C mice. As for the experimental part:
In this example, the pharmacokinetic parameters and lung tissue distribution of the deuterated compounds YF027, YF032, YF036, and YF044 and their respective non-deuterated control compounds (A, B, C, and D) were determined.
Balb/C mice, male (1 group at each time point, 5 mice per group, 55 mice per compound in total), 7-8 weeks old, weighing about 20 g, animal source: Beijing Vital River Laboratory Animal Technology Co., Ltd.
The test compound was completely dissolved in an 8% Tween-80 aqueous solution. A 10 mg/mL drug liquid was prepared for intraperitoneal injection and intragastric administration.
Single intragastric administration was performed at a dose of 100 mg/kg. The pharmacokinetic differences between the deuterated compounds YF027, YF032, YF036, and YF044 and their respective non-deuterated controls A, B, C, and D were compared.
The mice were fasted overnight before administration. In the experiment, orbital venous blood and lung tissue were collected from the mice at time points of no administration group (0 min) and 10 min, 20 min, 30 min, 1 h, 2 h, 3 h, 4 h, 6 h, 8 h, and 24 h after intragastric administration, and about 300 µL of blood was collected from the eyeballs each time.
The collected blood sample was placed in an anticoagulation tube, and quickly inverted and mixed well. The tube was temporarily placed on ice after being labeled. The blood samples temporarily stored on ice were subjected to low-temperature centrifugation within 1 h at 4 °C at 3000 rpm for 10 min. The supernatant obtained after centrifugation was plasma. The plasma was transferred to a new centrifuge tube and stored in a refrigerator at -80 °C for subsequent detection.
The lung tissues of the mice were collected, washed with pre-cooled normal saline to remove the residual blood and tissue fluid, dried with absorbent paper, weighed with a balance, and placed into a centrifuge tube. The tubes were marked and stored in a refrigerator at -80 °C.
The concentrations of the compounds of the present disclosure and control compounds in plasma and lung tissue were determined using LC-MS/MS. Table 2. Pharmacokinetic parameters of compound YF027 of the present disclosure and control compound A

The next series has as its target T1, CYP1A2 (Mus musculus, UniProt P00186).
T1 construct: from tissue; host or cells: mouse liver microsomes (component of a kit)
T1 sequence (P00186 1-513): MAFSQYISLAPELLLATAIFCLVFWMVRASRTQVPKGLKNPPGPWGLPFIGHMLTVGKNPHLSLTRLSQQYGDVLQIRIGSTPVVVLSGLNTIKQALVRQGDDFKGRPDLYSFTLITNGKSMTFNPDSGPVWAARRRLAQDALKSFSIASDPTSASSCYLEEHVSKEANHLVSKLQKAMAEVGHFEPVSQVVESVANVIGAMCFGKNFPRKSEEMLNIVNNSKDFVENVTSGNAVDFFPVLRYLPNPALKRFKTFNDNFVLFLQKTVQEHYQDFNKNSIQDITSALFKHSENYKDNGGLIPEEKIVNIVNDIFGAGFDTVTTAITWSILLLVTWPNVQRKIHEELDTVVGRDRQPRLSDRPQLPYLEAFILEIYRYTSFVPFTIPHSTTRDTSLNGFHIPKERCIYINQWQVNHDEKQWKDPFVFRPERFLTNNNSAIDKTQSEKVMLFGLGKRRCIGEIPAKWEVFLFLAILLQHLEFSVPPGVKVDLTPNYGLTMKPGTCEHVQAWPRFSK
It counts as in vitro ADME. The method, then: (§1) This example was to detect the CYP450 metabolic enzyme phenotype of the deuterated compound YF027 and its non-deuterated control compound A (using a CYP450 enzyme metabolic phenotype research kit (recombinant enzymatic method/7 enzymes)-mouse liver microsome test).
(§2) • a. The test compound was prepared into a 40 mM stock solution for later use. 2.5 µL of the stock solution was taken and diluted with DMSO to a test compound concentration of 200 µM, and the compound at this concentration was used in subsequent tests. • b. The working solution concentration of the mixed positive substrates, phenacetin and testosterone, was 200 µM.
(§3) 1) The components of the kit were thawed in an ice bath. The mixture was well mixed by vortexing and then placed on ice for later use. 2) In addition to the microsomes, the other components of the incubation systems were mixed according to the ratios and well mixed by pipetting, and the ratios of the incubation systems are shown below; Table 6. Incubation system of positive control group
(§4) The inhibitors were quinidine, naphthoflavone, pilocarpine, sodium diethyldithiocarbamate, ticlopidine, ketoconazole, and sulfaphenazole, which corresponded to the inhibition of CYP450 enzymes CYP2D6, CYP1A2, CYP2A6, CYP2E1, CYP2C19, CYP3A4, and CYP2C9, respectively. Table 9. Incubation system of negative control group
(§5) 3) Except for the negative control group (Table 9), 3.125 µL of liver microsomes was added to each of the above incubation systems to prepare 125 µL of reaction solution. The reaction solutions were well mixed by vortexing, and then placed in a water bath at 37 °C to initiate the reaction. A timer was set. 4) At time points of 0 min and 90 min, 50 µL of reaction solution was taken, and a pre-cooled acetonitrile solution was added to the reaction solution. The mixture was quickly well mixed by vortexing to stop the reaction. 5) Mass spectrometry detection pretreatment of reaction solution
(§6) The reaction solution was cryopreserved in a refrigerator at -80 °C overnight and then centrifuged for mass spectrometry detection.
(§7) The detection values after 90 min of incubation were processed as ratios relative to the 0-min detection values to determine the metabolic rate of the compounds in different experimental groups after 90 min. The metabolic inhibition rate was then calculated using the formula: Inhibition rate (%) = (1 - metabolic rate of sample with inhibitor/metabolic rate of sample without inhibitor) × 100%, as shown in Table 10 below. […] The metabolic inhibition rate reflects the effect on the metabolic elimination of the drug after adding different selective inhibitors. […]

The next series has as its target T2, CYP2E1 (Mus musculus, UniProt Q05421).
T2 construct: from tissue; host or cells: mouse liver microsomes (component of a kit)
It counts as in vitro ADME. As for the experimental part: as §1, §2, §3, §4, §5, §6, §7

A further series has as its system CYP2C19. The format is in vitro ADME, mouse. The method, then:
as §1, §2, §3, §4, §5, §6
(§8) The detection values after 90 min of incubation were processed as ratios relative to the 0-min detection values to determine the metabolic rate of the compounds in different experimental groups after 90 min. The metabolic inhibition rate was then calculated using the formula: Inhibition rate (%) = (1 - metabolic rate of sample with inhibitor/metabolic rate of sample without inhibitor) × 100%, as shown in Table 10 below. […] The metabolic inhibition rate reflects the effect on the metabolic elimination of the drug after adding different selective inhibitors. Therefore, when the metabolic inhibition rate of a specific enzyme is ≥ 25%, the contribution of the specific enzyme to the clearance of the drug under study can be inferred to be ≥ 25% based on the results of the in vitro metabolism study.

The subject of a further series is CYP3A4. The format is in vitro ADME, mouse. As for the experimental part:
as §1, §2, §3, §4, §5, §6, §8

A further series has as its system CYP2C9. The format is in vitro ADME, mouse. As for the experimental part: as §1, §2, §3, §4, §5, §6, §8
Another series deals with CYP2A6. The format is in vitro ADME, mouse. As for the experimental part: as §1, §2, §3, §4, §5, §6, §8
The subject of the next series is CYP2D6. It counts as in vitro ADME, mouse. The method, then: as §1, §2, §3, §4, §5, §6, §8
Series [4] relates to Mycobacterium tuberculosis H37Rv. The series is described as follows: Minimum inhibitory concentration (MIC90) against Mycobacterium tuberculosis H37Rv, Middlebrook 7H9, 96-well plate, 15 days. The format is cell-based. The conditions noted are these: Mycobacterium tuberculosis, H37RV, 360 h.

T2 sequence (Q05421 whole entry): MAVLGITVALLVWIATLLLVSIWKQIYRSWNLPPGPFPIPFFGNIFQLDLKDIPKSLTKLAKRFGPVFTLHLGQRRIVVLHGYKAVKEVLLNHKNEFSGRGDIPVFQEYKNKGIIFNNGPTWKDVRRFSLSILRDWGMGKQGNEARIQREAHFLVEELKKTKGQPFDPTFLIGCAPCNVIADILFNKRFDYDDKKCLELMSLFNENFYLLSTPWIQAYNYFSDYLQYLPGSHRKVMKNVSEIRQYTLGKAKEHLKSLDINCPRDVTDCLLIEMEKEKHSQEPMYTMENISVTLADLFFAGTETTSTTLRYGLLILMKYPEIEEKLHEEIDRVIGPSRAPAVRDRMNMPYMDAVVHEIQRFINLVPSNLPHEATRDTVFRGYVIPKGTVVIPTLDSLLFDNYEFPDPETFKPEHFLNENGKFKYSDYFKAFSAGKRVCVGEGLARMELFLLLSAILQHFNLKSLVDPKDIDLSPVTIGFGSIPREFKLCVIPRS

`CC(C)(C)c1cc(O)c(CN2CCCCC2)c2c1oc1c3ccc(O)cc3oc(=O)c12` [Compound A, reference compound]: the “pulmonary Mycobacterium tuberculosis clearance rate” value in series [1] (100 mg/kg intragastrically, 4 weeks, mice) is 87.7%. Also, the “reduction of pulmonary bacterial load” value in series [1] (mouse, in vivo) is given as 0.91 log. In addition, in series [2], the “mortality during the administration period” value is “no mice died”. Further, the total exposure AUC(0-inf) in series [3] was 121 ng·h/mL. The compound also returned an AUC(0-t) at 24 h in series [3] of 117 ng·h/mL. Besides, the maximum concentration (Cmax) in [3] was 120 ng/mL and 948 ng/g. Moreover, in series [3], the Tmax was 0.167 h. In [3], this compound had a half-life of 4.35 h. Further, the Inhibition rate is -11.7% on CYP1A2; -26.5% on CYP2E1; -19.3% with CYP2C19; 76.9% in the series with CYP3A4; -2.8% in the series on CYP2C9; 4.2% in the series with CYP2A6. Moreover, the Inhibition rate in the series on CYP2D6 is listed as -8.7%. This compound gave an MIC90 in [4] of at most 3.9 ng/mL.
